The values below are quoted from earlier work in patent US8198303B2, “Methods of use and compositions for the diagnosis and treatment of infectious diseases” (Sequella, Inc., priority 2002, dated 2012).

The series relates to M. tuberculosis. The following applies: background statement on ethambutol.

`CC[C@@H](CO)NCCN[C@@H](CC)CO` [ethambutol, Ethambutol]: the “Minimum Inhibition Concentration (MIC)” value is on record as “about 5 μg/ml”.
